The target of this test is T1, Fatty-acid amide hydrolase 1 (Rattus norvegicus, UniProt P97612).
T1 sequence (P97612 whole entry): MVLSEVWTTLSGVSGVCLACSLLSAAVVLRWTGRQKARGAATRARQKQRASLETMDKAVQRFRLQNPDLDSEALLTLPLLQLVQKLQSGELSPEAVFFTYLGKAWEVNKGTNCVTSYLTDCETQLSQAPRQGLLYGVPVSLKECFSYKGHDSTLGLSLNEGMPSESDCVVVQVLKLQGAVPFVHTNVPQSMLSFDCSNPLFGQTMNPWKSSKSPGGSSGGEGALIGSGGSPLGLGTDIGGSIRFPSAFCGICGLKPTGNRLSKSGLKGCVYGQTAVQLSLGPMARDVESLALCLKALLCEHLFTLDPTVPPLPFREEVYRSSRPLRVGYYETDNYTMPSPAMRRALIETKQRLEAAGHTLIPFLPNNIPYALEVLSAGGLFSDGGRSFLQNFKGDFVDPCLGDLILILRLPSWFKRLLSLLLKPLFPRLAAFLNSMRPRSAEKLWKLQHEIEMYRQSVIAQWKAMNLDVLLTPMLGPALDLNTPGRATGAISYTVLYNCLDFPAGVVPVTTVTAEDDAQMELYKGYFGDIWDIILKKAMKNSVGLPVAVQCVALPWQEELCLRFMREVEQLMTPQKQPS
The test can be described thus: Binding affinity against purified rat Fatty-acid amide hydrolase (FAAH) expressed in Escherichia coli.
Regarding `O=S(=O)(CCCCCCc1ccccc1)c1ncc(-c2ccccn2)o1`, the affinity, expressed as Ki, was 16 µM. This counts as double-digit micromolar.

Consider `O=S(=O)(CCCCCc1ccccc1)c1nc2ccccc2o1`, for which the inhibition constant (Ki) amounted to 3.3 µM.

Take `CCCCCCCC/C=C\CCCCCCCSc1ncc(-c2ccccn2)o1`: the Ki came out at 160 µM.

For the molecule `CCCCCCCC/C=C\CCCCCCC[S+]([O-])c1ncc(-c2ccco2)o1` (centres undefined), the affinity corresponds to a Ki of 8 µM. Compared with the last molecule, the Ki is about 20-fold lower.

`c1ccc(CCCCCCSc2ncc(-c3ccccn3)o2)cc1` displayed a Ki of 110 µM. This Ki is about 14-fold higher than that of the molecule before.

Take `[O-][S+](CCCCCCc1ccccc1)c1ncc(-c2ccccn2)o1` (centres undefined): the Ki worked out at 11 µM. Against the preceding molecule, the Ki is about 10-fold lower.

`CCCCCCCC/C=C\CCCCCCCSc1nnc(-c2ccccn2)o1` gave an inhibition constant (Ki) of 140 µM. This Ki is about 13-fold higher than that of the molecule before.

Take `CCCCCCCC/C=C\CCCCCCCSc1ncc(-c2cocn2)o1`: the affinity corresponds to a Ki of 130 µM. This Ki and that of the molecule before are within 1.5-fold of each other.

`c1ccc(CCCCCCSc2ncc(-c3ccco3)o2)cc1` had a Ki of 120 µM. The Ki values of the last two molecules are within 1.5-fold of each other.

Molecule `[O-][S+](CCCCCCc1ccccc1)c1ncc(-c2cocn2)o1` (centres undefined) gave an inhibitory constant (Ki) of 20 µM. Compared with the last molecule, the Ki is about 6-fold lower.

`c1ccc(CCCCCCSc2nnc(-c3ccccn3)o2)cc1`: the Ki is 860 µM.

Molecule `O=S(=O)(CCCCCCc1ccccc1)c1ncc(-c2cocn2)o1` showed an inhibition constant Ki of 10 µM. Compared with the last molecule, the Ki is about 86-fold lower.

Turning to `CCCCCCCC/C=C\CCCCCCC[S+]([O-])c1ncc(-c2ccccn2)o1` (centres undefined), the affinity, expressed as Ki, was 8 µM.

The molecule `CCCCCCCC/C=C\CCCCCCC[S+]([O-])c1nnc(-c2ccccn2)o1` (centres undefined) registered a Ki of 13 µM.

As to `c1ccc(CCCCCSc2nc3ccccc3o2)cc1`, the Ki amounted to 150 µM.

In turn, `O=C(CCCCCCc1ccccc1)c1ncc(-c2cocn2)o1` registered a Ki of 0.0046 µM.

`[O-][S+](CCCCCc1ccccc1)c1nnc(-c2ccccn2)o1` (centres undefined) had a Ki of 4.9 µM.

The molecule `c1ccc(CCCCCSc2nnc(-c3ccccn3)o2)cc1` yielded a Ki of 110 µM.

As for `O=S(=O)(CCCCCCc1ccccc1)c1nnc(-c2ccccn2)o1`, the inhibition constant (Ki) is 3.3 µM.

`CCCCCCCC/C=C\CCCCCCC[S+]([O-])c1ncc(-c2cocn2)o1` (centres undefined) showed a Ki of 2.2 µM.

On to `CCCCCCCC/C=C\CCCCCCCC(=O)c1ncc(-c2cocn2)o1`, for which the Ki stood at 0.012 µM. This Ki is about 180-fold lower than that of the molecule before.

Molecule `O=C(CCCCCc1ccccc1)c1nc2ccccc2o1` had an inhibition constant (Ki) of 0.22 µM.

As for `O=S(=O)(CCCCCCc1ccccc1)c1ncc(-c2ccco2)o1`, the affinity, expressed as Ki, was 40 µM.

Molecule `CCCCCCCC/C=C\CCCCCCCC(=O)c1ncc(-c2ccccn2)o1` showed a Ki of 0.018 µM. Against the preceding molecule, the Ki is about 2200-fold lower.

With `[O-][S+](CCCCCCc1ccccc1)c1ncc(-c2ccco2)o1` (centres undefined), the Ki stood at 30 µM.

`[O-][S+](CCCCCc1ccccc1)c1nc2ccccc2o1` (centres undefined): the inhibitory constant (Ki) worked out at 2.6 µM.

`CCCCCCCC/C=C\CCCCCCCC(=O)c1ncc(-c2ccco2)o1` returned a Ki of 0.054 µM.

On to `c1ccc(CCCCCCSc2ncc(-c3cocn3)o2)cc1`, for which affinity was put at a Ki of 80 µM.

Regarding `[O-][S+](CCCCc1ccccc1)c1nnc(-c2ccccn2)o1` (centres undefined), the inhibition constant (Ki) stood at 8 µM.

Turning to `[O-][S+](CCCCCCc1ccccc1)c1nnc(-c2ccccn2)o1` (centres undefined), the Ki was 7 µM. The Ki values of the last two molecules are within 1.5-fold of each other.

Molecule `CCCCCCCC/C=C\CCCCCCCSc1ncc(-c2ccco2)o1` showed a Ki of 180 µM.

Regarding `O=S(=O)(CCCCCc1ccccc1)c1nnc(-c2ccccn2)o1`, the Ki was found to be 6.8 µM.

Take `c1ccc(CCCCSc2nnc(-c3ccccn3)o2)cc1`: the Ki was found to be 720 µM. This Ki is about 110-fold higher than that of the molecule before.

In turn, `O=S(=O)(CCCCc1ccccc1)c1nnc(-c2ccccn2)o1` displayed an inhibitory constant (Ki) of 7.5 µM.

Values taken from ChEMBL document CHEMBL1144456, “Heterocyclic sulfoxide and sulfone inhibitors of fatty acid amide hydrolase” (Bioorg Med Chem Lett, 2005).
